{"source": "the CombiSolv-Exp solvation set (Vermeire and Green 2021)", "assay": "solvent given as SMILES"}
{"smiles": "CCCCCOC(C)=O", "values": [{"measurement": "solvation free energy, 298 K", "setting": "in CCCCCC", "result": -5.57, "unit": "kcal/mol"}, {"measurement": "solvation free energy, 298 K", "setting": "in CCCCCCC", "result": -5.48, "unit": "kcal/mol"}, {"measurement": "solvation free energy, 298 K", "setting": "in CCCCCCCC", "result": -5.42, "unit": "kcal/mol"}, {"measurement": "solvation free energy, 298 K", "setting": "in CCCCCCCCCC", "result": -5.37, "unit": "kcal/mol"}, {"measurement": "solvation free energy, 298 K", "setting": "in CCCCCCCCCCCCCCCC", "result": -5.24, "unit": "kcal/mol"}, {"measurement": "solvation free energy, 298 K", "setting": "in CCCCCCCCO", "result": -5.61, "unit": "kcal/mol"}, {"measurement": "solvation free energy, 298 K", "setting": "in NC=O", "result": -4.32, "unit": "kcal/mol"}, {"measurement": "solvation free energy, 298 K", "setting": "in O", "result": -2.48, "unit": "kcal/mol"}, {"measurement": "solvation free energy, 298 K", "setting": "in [2H]O[2H]", "result": -2.55, "unit": "kcal/mol"}]}
{"smiles": "FC(F)(F)F", "values": [{"measurement": "solvation free energy, 298 K", "setting": "in Brc1ccccc1", "result": 1.57, "unit": "kcal/mol"}, {"measurement": "solvation free energy, 298 K", "setting": "in C1CCOC1", "result": 1, "unit": "kcal/mol"}, {"measurement": "solvation free energy, 298 K", "setting": "in C1COCCO1", "result": 1.38, "unit": "kcal/mol"}, {"measurement": "solvation free energy, 298 K", "setting": "in CC(C)(C)O", "result": 0.8, "unit": "kcal/mol"}, {"measurement": "solvation free energy, 298 K", "setting": "in CC(C)CC(C)(C)C", "result": 0.56, "unit": "kcal/mol"}, {"measurement": "solvation free energy, 298 K", "setting": "in CC(C)CO", "result": 1, "unit": "kcal/mol"}, {"measurement": "solvation free energy, 298 K", "setting": "in CCC(C)O", "result": 1.01, "unit": "kcal/mol"}, {"measurement": "solvation free energy, 298 K", "setting": "in CCCCCC", "result": 0.49, "unit": "kcal/mol"}, {"measurement": "solvation free energy, 298 K", "setting": "in CCCCCCC", "result": 0.62, "unit": "kcal/mol"}, {"measurement": "solvation free energy, 298 K", "setting": "in CCCCCCCC", "result": 0.72, "unit": "kcal/mol"}, {"measurement": "solvation free energy, 298 K", "setting": "in CCCCCCCC(=O)OCC(COC(=O)CCCCCCC)OC(=O)CCCCCCC", "result": 1.4, "unit": "kcal/mol"}, {"measurement": "solvation free energy, 298 K", "setting": "in CCCCCCCCC", "result": 0.8, "unit": "kcal/mol"}, {"measurement": "solvation free energy, 298 K", "setting": "in CCCCCCCCCC", "result": 0.86, "unit": "kcal/mol"}, {"measurement": "solvation free energy, 298 K", "setting": "in CCCCCCCCCCC", "result": 0.92, "unit": "kcal/mol"}, {"measurement": "solvation free energy, 298 K", "setting": "in CCCCCCCCCCCC", "result": 0.97, "unit": "kcal/mol"}, {"measurement": "solvation free energy, 298 K", "setting": "in CCCCCCCCCCCCC", "result": 1.02, "unit": "kcal/mol"}, {"measurement": "solvation free energy, 298 K", "setting": "in CCCCCCCCCCCCCC", "result": 1.06, "unit": "kcal/mol"}, {"measurement": "solvation free energy, 298 K", "setting": "in CCCCCCCCCCCCCCC", "result": 1.1, "unit": "kcal/mol"}, {"measurement": "solvation free energy, 298 K", "setting": "in CCCCCCCCCCCCCCCC", "result": 1.11, "unit": "kcal/mol"}, {"measurement": "solvation free energy, 298 K", "setting": "in CCCCCCCCCCCO", "result": 1.39, "unit": "kcal/mol"}, {"measurement": "solvation free energy, 298 K", "setting": "in CCCCCCCCCCO", "result": 1.36, "unit": "kcal/mol"}, {"measurement": "solvation free energy, 298 K", "setting": "in CCCCCCCCCO", "result": 1.32, "unit": "kcal/mol"}, {"measurement": "solvation free energy, 298 K", "setting": "in CCCCCCCCO", "result": 1.27, "unit": "kcal/mol"}, {"measurement": "solvation free energy, 298 K", "setting": "in CCCCCCCO", "result": 1.25, "unit": "kcal/mol"}, {"measurement": "solvation free energy, 298 K", "setting": "in CCCCCCO", "result": 1.21, "unit": "kcal/mol"}, {"measurement": "solvation free energy, 298 K", "setting": "in CCCCCO", "result": 1.16, "unit": "kcal/mol"}, {"measurement": "solvation free energy, 298 K", "setting": "in CCCCO", "result": 1.1, "unit": "kcal/mol"}, {"measurement": "solvation free energy, 298 K", "setting": "in CCCO", "result": 1.04, "unit": "kcal/mol"}, {"measurement": "solvation free energy, 298 K", "setting": "in CCO", "result": 0.98, "unit": "kcal/mol"}, {"measurement": "solvation free energy, 298 K", "setting": "in CN1CCCC1=O", "result": 1.8, "unit": "kcal/mol"}, {"measurement": "solvation free energy, 298 K", "setting": "in CN(C)C=O", "result": 1.56, "unit": "kcal/mol"}, {"measurement": "solvation free energy, 298 K", "setting": "in CO", "result": 1, "unit": "kcal/mol"}, {"measurement": "solvation free energy, 298 K", "setting": "in Cc1ccc(C)cc1", "result": 1.11, "unit": "kcal/mol"}, {"measurement": "solvation free energy, 298 K", "setting": "in Cc1cccc(C)c1", "result": 1.13, "unit": "kcal/mol"}, {"measurement": "solvation free energy, 298 K", "setting": "in Cc1ccccc1C", "result": 1.21, "unit": "kcal/mol"}, {"measurement": "solvation free energy, 298 K", "setting": "in ClC(Cl)(Cl)Cl", "result": 0.82, "unit": "kcal/mol"}, {"measurement": "solvation free energy, 298 K", "setting": "in Clc1ccccc1", "result": 1.3, "unit": "kcal/mol"}, {"measurement": "solvation free energy, 298 K", "setting": "in O", "result": 3.13, "unit": "kcal/mol"}, {"measurement": "solvation free energy, 298 K", "setting": "in O=C1CCCC1", "result": 1.36, "unit": "kcal/mol"}, {"measurement": "solvation free energy, 298 K", "setting": "in O=C1CCCCC1", "result": 1.41, "unit": "kcal/mol"}]}
{"smiles": "CC=C(C)C", "values": [{"measurement": "solvation free energy, 298 K", "setting": "in BrC(Br)C(Br)Br", "result": -2.68, "unit": "kcal/mol"}, {"measurement": "solvation free energy, 298 K", "setting": "in C1=Cc2ccccc2C1", "result": -3.05, "unit": "kcal/mol"}, {"measurement": "solvation free energy, 298 K", "setting": "in C=CCCCCCCCCCCCCCC", "result": -2.97, "unit": "kcal/mol"}, {"measurement": "solvation free energy, 298 K", "setting": "in CC1COC(=O)O1", "result": -2.09, "unit": "kcal/mol"}, {"measurement": "solvation free energy, 298 K", "setting": "in CC(=O)N(C)C", "result": -2.58, "unit": "kcal/mol"}, {"measurement": "solvation free energy, 298 K", "setting": "in CC(=O)c1ccccc1", "result": -2.79, "unit": "kcal/mol"}, {"measurement": "solvation free energy, 298 K", "setting": "in CC(C)(C)O", "result": -3.22, "unit": "kcal/mol"}, {"measurement": "solvation free energy, 298 K", "setting": "in CCCCC#N", "result": -2.9, "unit": "kcal/mol"}, {"measurement": "solvation free energy, 298 K", "setting": "in CCCCCC#N", "result": -2.96, "unit": "kcal/mol"}, {"measurement": "solvation free energy, 298 K", "setting": "in CCNC(C)=O", "result": -2.69, "unit": "kcal/mol"}, {"measurement": "solvation free energy, 298 K", "setting": "in CN1CCCC1=O", "result": -2.51, "unit": "kcal/mol"}, {"measurement": "solvation free energy, 298 K", "setting": "in CN(C)C=O", "result": -2.56, "unit": "kcal/mol"}, {"measurement": "solvation free energy, 298 K", "setting": "in CN(C)P(=O)(N(C)C)N(C)C", "result": -2.61, "unit": "kcal/mol"}, {"measurement": "solvation free energy, 298 K", "setting": "in CNC(C)=O", "result": -2.54, "unit": "kcal/mol"}, {"measurement": "solvation free energy, 298 K", "setting": "in CNC=O", "result": -2.17, "unit": "kcal/mol"}, {"measurement": "solvation free energy, 298 K", "setting": "in CS(C)=O", "result": -1.97, "unit": "kcal/mol"}, {"measurement": "solvation free energy, 298 K", "setting": "in Cc1cccc2ccccc12", "result": -2.88, "unit": "kcal/mol"}, {"measurement": "solvation free energy, 298 K", "setting": "in Cc1cccc(O)c1", "result": -2.63, "unit": "kcal/mol"}, {"measurement": "solvation free energy, 298 K", "setting": "in ClC(Cl)C(Cl)Cl", "result": -3.16, "unit": "kcal/mol"}, {"measurement": "solvation free energy, 298 K", "setting": "in Clc1cccc2ccccc12", "result": -2.8, "unit": "kcal/mol"}, {"measurement": "solvation free energy, 298 K", "setting": "in N#CCCCC#N", "result": -1.67, "unit": "kcal/mol"}, {"measurement": "solvation free energy, 298 K", "setting": "in N#CCCCCC#N", "result": -1.98, "unit": "kcal/mol"}, {"measurement": "solvation free energy, 298 K", "setting": "in N#CCc1ccccc1", "result": -2.48, "unit": "kcal/mol"}, {"measurement": "solvation free energy, 298 K", "setting": "in N#Cc1ccccc1", "result": -2.89, "unit": "kcal/mol"}, {"measurement": "solvation free energy, 298 K", "setting": "in NCc1ccccc1", "result": -2.67, "unit": "kcal/mol"}, {"measurement": "solvation free energy, 298 K", "setting": "in Nc1ccccc1", "result": -2.3, "unit": "kcal/mol"}, {"measurement": "solvation free energy, 298 K", "setting": "in O", "result": 1.37, "unit": "kcal/mol"}, {"measurement": "solvation free energy, 298 K", "setting": "in O=C1CCCCC1", "result": -3.09, "unit": "kcal/mol"}, {"measurement": "solvation free energy, 298 K", "setting": "in O=C(O)C(Cl)Cl", "result": -2.63, "unit": "kcal/mol"}, {"measurement": "solvation free energy, 298 K", "setting": "in OCCO", "result": -0.76, "unit": "kcal/mol"}, {"measurement": "solvation free energy, 298 K", "setting": "in OCc1ccccc1", "result": -2.44, "unit": "kcal/mol"}]}
{"smiles": "CC1(C)C2CC3C(C2)C31C", "values": [{"measurement": "solvation free energy, 298 K", "setting": "in O", "result": 0.87, "unit": "kcal/mol"}]}
{"smiles": "O=[N+]([O-])c1cc[n+]([O-])cc1", "values": [{"measurement": "solvation free energy, 298 K", "setting": "in CC(C)CC(C)(C)C", "result": -7.06, "unit": "kcal/mol"}, {"measurement": "solvation free energy, 298 K", "setting": "in CCCCCC", "result": -7.08, "unit": "kcal/mol"}, {"measurement": "solvation free energy, 298 K", "setting": "in CCCCCCC", "result": -7.12, "unit": "kcal/mol"}, {"measurement": "solvation free energy, 298 K", "setting": "in CCCCCCCC", "result": -7.13, "unit": "kcal/mol"}, {"measurement": "solvation free energy, 298 K", "setting": "in CCCCCCCCCC", "result": -7.16, "unit": "kcal/mol"}]}
{"smiles": "Cc1ccc(C=O)cc1", "values": [{"measurement": "solvation free energy, 298 K", "setting": "in O", "result": -4.27, "unit": "kcal/mol"}]}
{"smiles": "CCCCCCCCCCCCOC(=O)c1ccccc1C(=O)OCCCCCCCCCCCC", "values": [{"measurement": "solvation free energy, 298 K", "setting": "in O", "result": -5.92, "unit": "kcal/mol"}]}
{"smiles": "CC1CCC2(C(C)C)CC12", "note": "(centres undefined)", "values": [{"measurement": "solvation free energy, 298 K", "setting": "in O", "result": 1.13, "unit": "kcal/mol"}]}
